Source: patent publication US8598132B2, “Glycosylated indolocarbazoles, method for obtaining same and uses thereof” (Universidad de Oviedo, priority 2008, dated 2013)

Key:
Format in all cases: biochemical
Settings in all cases: read-out: remaining kinase activity (in %) / percentage of inhibition; for inhibition at 0.01 µM: compound at 10 nM; for inhibition at 0.1 µM: compound at 100 nM
Erk2 = target: T1, Erk2 (Homo sapiens, UniProt P28482); assay: LabChip (Caliper) kinase assay, Erk2
T1 construct: purchased Carna Biosciences
Protocol: (§1) The analysis of kinase activity described here was performed using LabChip (Caliper Life Sciences), specifically the Caliper LC3000 and the EZ Reader II instruments.
(§2) The kinase assay used measures the conversion of a fluorescent peptide (substrate) to a phosphorylated product. The reaction mixture, in a microplate well, is introduced by a capillary in a chip where the non-phosphorylated substrate and the phosphorylated product are separated by […]. The intensity of the fluorescent signal over time is related to the reaction progress. The phosphorylated product migrates quicker than the non-phosphorylated substrate and the signals of the two forms of the peptide appear as differentiated peaks. The Caliper determines the peak height and calculates the ratio of product to the peak sum (P/(P+S)). This value is used to compare wells with compounds and wells with controls and thus determine the % of inhibition for the given product.
(§3) The followings kinases were used for the enzymatic inhibition studies, between brackets the value of the Michaelis-Menten constant, Km, of the ATP (Adenosine triphosphate) for each kinase, in μM: obtained from Carna Biosciences: MAPKAPK2 (4.6), AurA (3.6), AurB (5), PKCζ (3.8), RSK1 (23.3), PRAK (5), Erk1 (33.4), PKD2 (32.1), CK1d (16.3), CHK1 (33), ABL (61.7), FYN (36), LYNa (17), CHK2 (57.8), MET (79.5), LCK (28.5), SRC (38), GSK3β (7.3), Erk2 (62.1), PKACα (1.7), AKT2 (186.1), INSR (871.8), p38a (396.5), AKT1(48), MSK1 (21.2), PKCβ2 (84.8), ROCK2 (3.3), PIM2 (4.9), AMPK (38.6), KDR (164.8), IRAK4 (196.5), SGK1 (121.8), SYK (33.5); obtained from Invitrogen: CDK2 (57.6), BTK (123), HGK (80); obtained from Upstate: MST2 (36.6), PKGα (16), PAK2 (1.9), IGF1R (320), FGFR1 (171), MARK1 (33), CAMK2δ (22.4), c-TAK1 (66), DYRK1a (18.1), CaMK4 (3.9), FLT3 (350), c-Raf (6.2), P70S6K (95).
(§4) The compounds were dissolved in 100% DMSO and were diluted at 25 times the final concentration desired for the assay. In the case of the determination of Cl50, serial dilutions were made to reach eight concentrations and give rise to the inhibition curve. 1 μL of each concentration is transferred, in duplicate to a 384-well microplate. 12 μL of enzymatic buffer is added to each well containing purified kinase (several suppliers as indicated above), 100 mM HEPES, pH 7.5, 1 mM DTT (Calbiochem), 0.002% Brij-35 (Sigma) and also in presence of 10 mM MgCl2 as cofactor, except for INSR and IRAK4 wherein 10 mM MnCl2 is used instead of MgCl2. For the kinases CAMK26 and CAMK4, 1 mM CaCl2 and 6.7 μg/mL of calmodulin are also added. For KDR kinase, 0.05% of the CHAPSO detergent is added. For the c-Raf kinase, 10 mM MnCl2 is added. For PKCβ2 0.02 μg/mL of PS/PMA is added. For PKGα se 10 μM of cGMP (cyclic guanosine monophosphate) is added. The compound and the enzyme are left for 15 minutes preincubation and, then, the following are added to each well: 12 μL of peptide buffer/ATP containing 100 mM HEPES, pH 7.5, 1.5 μM peptide marker with fluorescein (specific for the corresponding kinase), ATP (at concentration KM), and 0.002% Brij-35 to start the reaction. Generally, the reactions are incubated for 1-1.5 h at ambient temperature to obtain an adequate conversion (15-40%) of the peptide to the phosphorylated product. The reactions were ended by the addition of 45 μL of buffer containing 0 mM EDTA. The microplates were read by the LabChip 3000 using a 12-channel LabChip. The P/(P+S) values were obtained as described above and the CI50 curves were generated using XIfit. […]

GSK3b = target: T2, GSK3b (Homo sapiens, UniProt P49841); assay: LabChip (Caliper) kinase assay, GSK3b
T2 construct: purchased Carna Biosciences
Protocol: as §1, §2, §3, §4

SGK1 = target: T3, SGK1 (Homo sapiens, UniProt O00141); assay: LabChip (Caliper) kinase assay, SGK1
T3 construct: purchased Carna Biosciences
T3 sequence (O00141 1-431): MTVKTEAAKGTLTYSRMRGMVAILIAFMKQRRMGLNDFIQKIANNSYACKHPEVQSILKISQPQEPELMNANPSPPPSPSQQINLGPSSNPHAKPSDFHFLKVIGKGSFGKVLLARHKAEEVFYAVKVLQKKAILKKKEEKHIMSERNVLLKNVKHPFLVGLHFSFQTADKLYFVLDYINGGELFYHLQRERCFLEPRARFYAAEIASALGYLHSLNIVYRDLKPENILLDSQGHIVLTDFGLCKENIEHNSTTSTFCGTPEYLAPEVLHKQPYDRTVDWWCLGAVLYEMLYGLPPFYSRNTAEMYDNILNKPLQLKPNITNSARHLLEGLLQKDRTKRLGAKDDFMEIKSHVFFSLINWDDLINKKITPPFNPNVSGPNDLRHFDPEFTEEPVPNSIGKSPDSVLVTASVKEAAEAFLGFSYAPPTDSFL
Protocol: as §1, §2, §3, §4

T2 sequence (P49841 whole entry): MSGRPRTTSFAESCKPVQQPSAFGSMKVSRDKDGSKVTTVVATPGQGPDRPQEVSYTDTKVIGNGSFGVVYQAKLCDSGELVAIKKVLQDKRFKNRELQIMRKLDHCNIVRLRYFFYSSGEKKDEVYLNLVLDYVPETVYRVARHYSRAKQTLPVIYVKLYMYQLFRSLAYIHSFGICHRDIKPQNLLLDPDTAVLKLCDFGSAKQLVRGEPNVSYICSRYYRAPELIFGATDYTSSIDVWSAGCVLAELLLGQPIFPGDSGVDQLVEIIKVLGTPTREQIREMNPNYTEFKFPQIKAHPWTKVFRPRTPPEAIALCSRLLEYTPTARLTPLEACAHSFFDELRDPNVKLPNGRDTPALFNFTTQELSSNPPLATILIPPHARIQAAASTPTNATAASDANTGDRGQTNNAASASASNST
T1 sequence (P28482 whole entry): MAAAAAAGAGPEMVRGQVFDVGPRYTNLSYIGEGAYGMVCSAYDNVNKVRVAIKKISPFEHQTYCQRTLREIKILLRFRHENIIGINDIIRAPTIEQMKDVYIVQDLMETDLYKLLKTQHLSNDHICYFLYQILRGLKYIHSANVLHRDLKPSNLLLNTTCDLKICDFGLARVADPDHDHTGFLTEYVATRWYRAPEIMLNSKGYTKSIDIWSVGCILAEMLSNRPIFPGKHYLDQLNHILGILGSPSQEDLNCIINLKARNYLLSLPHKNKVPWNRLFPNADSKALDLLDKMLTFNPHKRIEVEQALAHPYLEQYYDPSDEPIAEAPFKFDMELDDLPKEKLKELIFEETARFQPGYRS

| SMILES | inhibition at 0.01 µM (Erk2) [%] | inhibition at 0.1 µM (Erk2) [%] | inhibition at 0.01 µM (GSK3b) [%] | inhibition at 0.1 µM (GSK3b) [%] | inhibition at 0.01 µM (SGK1) [%] | inhibition at 0.1 µM (SGK1) [%] |
| --- | --- | --- | --- | --- | --- | --- |
| C[C@H]1O[C@@H](n2c3ccccc3c3c4c(c5c6ccccc6[nH]c5c32)CNC4=O)C[C@@H](O)[C@@H]1O [formula (XV), N^13-1′-β-D-olivosyl-k252c] | -4 | -2 | 0 | 0 | 9 | 12 |
| C[C@@H]1O[C@@H](n2c3ccccc3c3c4c(c5c6ccccc6[nH]c5c32)C(=O)NC4=O)C[C@H](O)[C@H]1O [formula (IV), N^13-1′-β-L-olivosylarcyriaflavin] | -2 | -3 | 21 | 69 | 9 | 17 |
| C[C@H]1O[C@@H](n2c3ccccc3c3c4c(c5c6ccccc6[nH]c5c32)C(=O)NC4=O)C[C@@H](O)[C@@H]1O [formula (VI), N^13-1′-β-D-olivosylarcyriaflavin] | -1 | 30 | 18 | 69 | 12 | 27 |
| C[C@@H]1O[C@@H](n2c3ccccc3c3c4c(c5c6ccccc6[nH]c5c32)CNC4=O)C[C@@H](O)[C@H]1O [formula (XIV), N^13-1′-β-L-digitoxosyl-k252c] | -4 | 0 | 1 | 7 | 6 | 14 |
| C[C@@H]1O[C@@H](n2c3ccccc3c3c4c(c5c6ccccc6[nH]c5c32)CNC4=O)C[C@H](O)[C@H]1O [formula (XIII), N^13-1′-β-L-olivosyl-k252c] | -4 | 3 | 2 | 9 | 8 | 15 |
| C[C@@H]1O[C@@H](n2c3ccccc3c3c4c(c5c6ccccc6[nH]c5c32)C(=O)NC4=O)C[C@@H](O)[C@H]1O [formula (V), N^13-1′-β-L-digitoxosylarcyriaflavin] | -4 | 0 | 42 | 81 | 17 | 37 |
| C[C@@H]1O[C@@H](n2c3ccccc3c3c4c(c5c6ccccc6[nH]c5c32)C(=O)NC4=O)[C@H](O)[C@H](O)[C@H]1O [formula (III), N^13-1′-β-L-rhamnosylarcyriaflavin] | -6 | -4 | 21 | 72 | 8 | 13 |
| C[C@@H]1O[C@@H](n2c3ccccc3c3c4c(c5c6ccccc6[nH]c5c32)CNC4=O)[C@H](O)[C@H](O)[C@H]1O [formula (XII), N^13-1′-β-L-rhamnosyl-k252c] | -3 | -1 | 3 | 8 | 7 | 6 |
